Source: ChEMBL document CHEMBL3232977, “Medicinal chemistry optimization of antiplasmodial imidazopyridazine hits from high throughput screening of a SoftFocus kinase library: part 1” (J Med Chem, 2014)
Converted amounts (≈) assume the structure as drawn.

Assays:
Plasmodium falciparum [1] = assay: microbe, parasite or virus in culture; conditions: NF54
physchem [2] = conditions: 0.01 M HCl, pH 2
Plasmodium berghei [3] = assay: Antimalarial activity against GFP-transfected Plasmodium berghei ANKA infected in mouse assessed as mean survival days at 40 mg/kg, po qd for 4 days; assay type: functional
Plasmodium berghei [4] = assay: Antimalarial activity against GFP-transfected Plasmodium berghei ANKA infected in mouse assessed as reduction of parasitemia at 40 mg/kg, po qd for 4 days; assay type: functional
Plasmodium falciparum [5] = assay: microbe, parasite or virus in culture; conditions: K1
[6] = Hepatic extraction ratio in human liver microsomes at 1 uM up to 60 mins by LC-MS analysis; assay type: ADME; conditions: read-out: ERH
Plasmodium falciparum [7] = system: Plasmodium falciparum
[8] = Apparent Cmax in GFP-transfected Plasmodium berghei ANKA infected mouse at 40 mg/kg, po qd for 4 days; assay type: ADME, organism-based; design: dose 40 mg/kg, route oral; conditions: in vivo
Plasmodium berghei [9] = conditions: dose 30 mg/kg; route oral
Plasmodium berghei [10] = conditions: dose 30 mg/kg; route oral; remark: listed apart in the source
physchem [11] = conditions: buffer, pH 2
[12] = Plasma total clearance in Sprague-Dawley rat at 3.6 mg/ml, iv; assay type: ADME, organism-based
[13] = Tmax in Sprague-Dawley rat at 3.6 mg/ml, po; assay type: ADME, organism-based; conditions: in vivo
[14] = Volume of distribution at steady state in Sprague-Dawley rat at 3.6 mg/ml, iv; assay type: ADME, organism-based; conditions: in vivo, read-out: Vdss
[15] = Apparent AUC in GFP-transfected Plasmodium berghei ANKA infected mouse at 40 mg/kg, po qd for 4 days; assay type: ADME, organism-based; design: dose 40 mg/kg, route oral; conditions: in vivo
[16] = AUC (0 to infinity) in Sprague-Dawley rat at 3.6 mg/ml, iv; assay type: ADME, organism-based; design: dose 3.6 mg/ml, route intravenous, time infinity; conditions: plasma
[17] = Oral bioavailability in Sprague-Dawley rat at 3.6 mg/ml; assay type: ADME, organism-based; conditions: in vivo
Plasmodium berghei [18] = assay: Antimalarial activity against GFP-transfected Plasmodium berghei ANKA infected in po dosed mouse assessed as reduction of parasitemia administered qd for 4 days; assay type: functional; conditions: 96 h
[19] = Apparent half life in Sprague-Dawley rat at 3.6 mg/ml, iv; assay type: ADME, organism-based; conditions: in vivo, read-out: t1/2(app) (converted)
[20] = Apparent half life in Sprague-Dawley rat at 3.6 mg/ml, po; assay type: ADME, organism-based; conditions: in vivo, read-out: t1/2(app) (converted)
[21] = AUC (0 to infinity) in Sprague-Dawley rat at 3.6 mg/ml, po; assay type: ADME, organism-based; design: dose 3.6 mg/ml, time infinity, route oral; conditions: plasma
Plasma = assay: Average plasma concentration in GFP-transfected Plasmodium berghei ANKA infected mouse at 40 mg/kg, po qd for 4 days measured after 24 hrs; assay type: ADME, organism-based; design: dose 40 mg/kg, route oral; conditions: in vivo
[22] = Cmax in Sprague-Dawley rat at 3.6 mg/ml, po; assay type: ADME, organism-based; design: dose 3.6 mg/ml, route oral; conditions: in vivo
Plasmodium falciparum [23] = assay: Antimalarial activity against Plasmodium falciparum infected in po dosed SCID mouse assessed as reduction of parasitemia administered qd for 4 days; assay type: functional; conditions: 96 h
[24] = Solubility of the compound in 0.01M HCl at pH 2.5; assay type: physicochemical

Cc1ccc(-c2ccc3ncc(-c4ccc(S(C)(=O)=O)cc4)n3n2)cc1C(F)(F)F
IC50 (Plasmodium falciparum [1]): 32 nM
solubility (physchem [2]): > 100 µg/mL
MSD (Plasmodium berghei [3]): 7 days
MSD (Plasmodium berghei [4]): 79 days
IC50 (Plasmodium falciparum [5]): 26 nM

CS(=O)(=O)Nc1cccc(-c2ccc3ncc(-c4cncnc4)n3n2)c1
IC50 (Plasmodium falciparum [1]): 93 nM
solubility (physchem [2]): > 100 µg/mL
hepatic extraction ratio at 1 h, 1 µM [6]: 0.75
IC50 (Plasmodium falciparum [5]): 76 nM

CC(C)(C)c1cccc(-c2ccc3ncc(-c4ccc(S(C)(=O)=O)cc4)n3n2)c1
IC50 (Plasmodium falciparum [7]): ND(Insoluble)
solubility (physchem [2]): > 100 µg/mL

CS(=O)(=O)c1ccc(-c2ccc3ncc(-c4ccc(C(F)(F)F)cc4)n3n2)cc1
IC50 (Plasmodium falciparum [1]): 764 nM
solubility (physchem [2]): > 100 µg/mL
hepatic extraction ratio at 1 h, 1 µM [6]: < 0.28
IC50 (Plasmodium falciparum [5]): 668 nM

CS(=O)(=O)c1ccc(-c2cnc3ccc(-c4cccc(S(N)(=O)=O)c4)nn23)cc1
IC50 (Plasmodium falciparum [1]): 4.4 nM
solubility (physchem [2]): > 100 µg/mL
Cmax [8]: 20 nM
MSD (Plasmodium berghei [3]): 4 days
MSD (Plasmodium berghei [4]): <40 days
IC50 (Plasmodium falciparum [5]): 4.4 nM

C[C@H]1[C@H](OC(=O)CCC(=O)O)O[C@@H]2O[C@@]3(C)CC[C@H]4[C@H](C)CC[C@@H]1[C@@]24OO3 [ARTESUNATE]
IC50 (Plasmodium falciparum [1]): 4 nM
MSD (Plasmodium berghei [9]): 10 days
IC50 (Plasmodium falciparum [5]): 3 nM
MSD (Plasmodium berghei [10]): 99 days

CS(=O)(=O)Nc1cccc(-c2ccc3ncc(-c4ccc([S+](N)[O-])cc4)n3n2)c1 (centres undefined)
IC50 (Plasmodium falciparum [1]): 18 nM
solubility (physchem [2]): > 100 µg/mL
hepatic extraction ratio at 1 h, 1 µM [6]: 0.42
IC50 (Plasmodium falciparum [5]): 20 nM

CN1CCN(C(=O)c2cccc(-c3ccc4ncc(-c5ccc(S(C)(=O)=O)cc5)n4n3)c2)CC1
IC50 (Plasmodium falciparum [1]): 6.1 nM
solubility (physchem [2]): > 100 µg/mL
solubility (physchem [11]): 50 µg/mL (≈ 105 µM)
IC50 (Plasmodium falciparum [5]): 5.5 nM

NCc1ccc(-c2ccc3ncc(-c4ccncc4)n3n2)cc1
IC50 (Plasmodium falciparum [1]): 335 nM
solubility (physchem [2]): > 100 µg/mL
IC50 (Plasmodium falciparum [5]): 491 nM

CN1CCN(S(=O)(=O)c2ccc(-c3ccc4ncc(-c5ccncc5)n4n3)cc2)CC1
IC50 (Plasmodium falciparum [1]): 739 nM
solubility (physchem [2]): > 100 µg/mL
IC50 (Plasmodium falciparum [5]): 1250 nM

O[C@@H](c1cc(C(F)(F)F)nc2c(C(F)(F)F)cccc12)[C@H]1CCCCN1 (relative stereo) [(S,R)-MEFLOQUINE]
IC50 (Plasmodium falciparum [1]): 12 nM
MSD (Plasmodium berghei [9]): 29 days
IC50 (Plasmodium falciparum [5]): 8.4 nM
MSD (Plasmodium berghei [10]): 99.9 days

COc1ccc(-c2cnc3ccc(-c4cccnc4)nn23)cc1OC
IC50 (Plasmodium falciparum [1]): 25.9 nM
hepatic extraction ratio at 1 h, 1 µM [6]: 0.92
IC50 (Plasmodium falciparum [5]): 23.5 nM

O=S(=O)(c1ccc(-c2ccc3ncc(-c4ccncc4)n3n2)cc1)N1CCOCC1
IC50 (Plasmodium falciparum [1]): 2240 nM
solubility (physchem [2]): > 100 µg/mL
IC50 (Plasmodium falciparum [5]): 1490 nM

c1cc(-c2ccc3ncc(-c4ccncc4)n3n2)cc(N2CCOCC2)c1
IC50 (Plasmodium falciparum [1]): 283 nM
solubility (physchem [2]): > 100 µg/mL
IC50 (Plasmodium falciparum [5]): 246 nM

c1cc(-c2cnc3ccc(-c4ccc(N5CCOCC5)cc4)nn23)ccn1
IC50 (Plasmodium falciparum [1]): > 2800 nM
solubility (physchem [2]): > 100 µg/mL
IC50 (Plasmodium falciparum [5]): > 2800 nM

CS(=O)(=O)c1ccc(-c2cnc3ccc(-c4ccc(F)c(Cl)c4)nn23)cc1
IC50 (Plasmodium falciparum [1]): 179 nM
solubility (physchem [2]): > 100 µg/mL
IC50 (Plasmodium falciparum [5]): 152 nM

CS(=O)(=O)c1ccc(-c2cnc3ccc(-c4cccc(C(=O)N5CCCCC5)c4)nn23)cc1
IC50 (Plasmodium falciparum [1]): 6.5 nM
solubility (physchem [2]): > 100 µg/mL
IC50 (Plasmodium falciparum [5]): 7.2 nM

c1cncc(-c2ccc3ncc(-c4cccnc4)n3n2)c1
IC50 (Plasmodium falciparum [1]): 1270 nM
solubility (physchem [2]): > 100 µg/mL
IC50 (Plasmodium falciparum [5]): 1070 nM

CS(=O)(=O)c1cccc(-c2ccc3ncc(-c4ccncc4)n3n2)c1
IC50 (Plasmodium falciparum [1]): 46 nM
solubility (physchem [2]): > 100 µg/mL
IC50 (Plasmodium falciparum [5]): 28 nM

CS(=O)(=O)Nc1cccc(-c2ccc3ncc(-c4ccc(S(C)(=O)=O)cc4)n3n2)c1
IC50 (Plasmodium falciparum [1]): 19 nM
solubility (physchem [2]): > 100 µg/mL
IC50 (Plasmodium falciparum [5]): 19 nM

CS(=O)(=O)c1ccc(-c2cnc3ccc(-c4ccc(C(F)(F)F)cc4)nn23)cc1
IC50 (Plasmodium falciparum [1]): 189 nM
solubility (physchem [2]): > 100 µg/mL
IC50 (Plasmodium falciparum [5]): 134 nM

COc1ccc(-c2ccc3ncc(-c4ccncc4)n3n2)cc1OC
IC50 (Plasmodium falciparum [1]): 16 nM
solubility (physchem [2]): > 100 µg/mL
hepatic extraction ratio at 1 h, 1 µM [6]: 0.86
IC50 (Plasmodium falciparum [5]): 14 nM

CC(C)(C)c1ccc(-c2ccc3ncc(-c4ccncc4)n3n2)cc1
IC50 (Plasmodium falciparum [1]): 1880 nM
solubility (physchem [2]): > 100 µg/mL
IC50 (Plasmodium falciparum [5]): 1420 nM

O=C(c1ccc(-c2ccc3ncc(-c4ccc(C(F)(F)F)cc4)n3n2)cc1)N1CCOCC1
IC50 (Plasmodium falciparum [1]): 763 nM
solubility (physchem [2]): > 100 µg/mL
hepatic extraction ratio at 1 h, 1 µM [6]: 0.59
IC50 (Plasmodium falciparum [5]): 732 nM

CS(=O)(=O)c1ccc(-c2cnc3ccc(-c4cccc(C(=O)NCCO)c4)nn23)cc1
IC50 (Plasmodium falciparum [1]): 99 nM
solubility (physchem [2]): > 100 µg/mL
solubility (physchem [11]): 50 µg/mL (≈ 115 µM)
IC50 (Plasmodium falciparum [5]): 78 nM

CS(=O)(=O)Nc1cccc(-c2ccc3ncc(-c4ccncc4)n3n2)c1
IC50 (Plasmodium falciparum [1]): 16 nM
solubility (physchem [2]): > 100 µg/mL
hepatic extraction ratio at 1 h, 1 µM [6]: 0.82
IC50 (Plasmodium falciparum [5]): 15 nM

CS(=O)(=O)c1ccc(-c2cnc3ccc(-c4cccc(S(C)(=O)=O)c4)nn23)cc1
clearance [12]: 5.77 mL/min/kg
Tmax [13]: 3 h
IC50 (Plasmodium falciparum [1]): 7.3 nM
Vd [14]: 3.01 L/kg
AUC at 96 h [15]: 27.8 µM·h
solubility (physchem [2]): > 100 µg/mL
Cmax [8]: 2200 nM
MSD (Plasmodium berghei [3]): 7 days
AUC(0-inf) [16]: 24.3 µM·h
bioavailability [17]: 77.7%
ED50 (Plasmodium berghei [18]): 1.4 mg/kg
ED90 (Plasmodium berghei [18]): 15 mg/kg
MSD (Plasmodium berghei [4]): 98 days
half-life [19]: 7.15 h
half-life [20]: 7.08 h
AUC(0-inf) [21]: 18.9 µM·h
Cave (Plasma): 1200 nM
Cmax [22]: 1900 nM
IC50 (Plasmodium falciparum [5]): 6.3 nM
ED90 (Plasmodium falciparum [23]): 1.5 mg/kg

FC(F)(F)Oc1ccc(-c2ccc3ncc(-c4ccncc4)n3n2)cc1
IC50 (Plasmodium falciparum [1]): 1060 nM
solubility (physchem [2]): > 100 µg/mL
IC50 (Plasmodium falciparum [5]): 980 nM

CC(C)(C)OC(=O)NCc1ccc(-c2ccc3ncc(-c4ccncc4)n3n2)cc1
IC50 (Plasmodium falciparum [1]): 1630 nM
solubility (physchem [2]): > 100 µg/mL
IC50 (Plasmodium falciparum [5]): 1610 nM

CS(=O)(=O)c1ccc(-c2cnc3ccc(-c4ccc(C(=O)NC5CCCC5)cc4)nn23)cc1
IC50 (Plasmodium falciparum [1]): 154 nM
solubility (physchem [2]): > 100 µg/mL
IC50 (Plasmodium falciparum [5]): 146 nM

Fc1cccc(-c2ccc3ncc(-c4ccncc4)n3n2)c1
IC50 (Plasmodium falciparum [1]): 272 nM
solubility (physchem [2]): > 100 µg/mL
IC50 (Plasmodium falciparum [5]): 203 nM

CS(=O)(=O)c1ccc(-c2cnc3ccc(-c4cccc(C(=O)N5CCNCC5)c4)nn23)cc1
IC50 (Plasmodium falciparum [1]): 15 nM
solubility (physchem [2]): > 100 µg/mL
Cmax [8]: 10 nM
MSD (Plasmodium berghei [3]): 4 days
MSD (Plasmodium berghei [4]): <40 days
IC50 (Plasmodium falciparum [5]): 11 nM
solubility [24]: > 100 µg/mL

CS(=O)(=O)c1ccc(-c2cnc3ccc(-c4cccc(S(=O)(=O)NC5CC5)c4)nn23)cc1
IC50 (Plasmodium falciparum [1]): 0.66 nM
solubility (physchem [2]): > 100 µg/mL
IC50 (Plasmodium falciparum [5]): 0.58 nM
